Reference: patent US11021435B2, “Serotonin receptor-targeting compounds and methods” (priority 2014, dated 2021)
“Also recorded” adds a separate entry of the source.

Tests used:
[1] = biological target: T1, 5-HT1A receptors (Homo sapiens, UniProt P08908); test: Binding affinity, HEK293 cells transiently over-expressing human 5-HT1A
T1 construct: expressed in transfected cells; host or cells: HEK293, transient
T1 sequence (P08908 1-422): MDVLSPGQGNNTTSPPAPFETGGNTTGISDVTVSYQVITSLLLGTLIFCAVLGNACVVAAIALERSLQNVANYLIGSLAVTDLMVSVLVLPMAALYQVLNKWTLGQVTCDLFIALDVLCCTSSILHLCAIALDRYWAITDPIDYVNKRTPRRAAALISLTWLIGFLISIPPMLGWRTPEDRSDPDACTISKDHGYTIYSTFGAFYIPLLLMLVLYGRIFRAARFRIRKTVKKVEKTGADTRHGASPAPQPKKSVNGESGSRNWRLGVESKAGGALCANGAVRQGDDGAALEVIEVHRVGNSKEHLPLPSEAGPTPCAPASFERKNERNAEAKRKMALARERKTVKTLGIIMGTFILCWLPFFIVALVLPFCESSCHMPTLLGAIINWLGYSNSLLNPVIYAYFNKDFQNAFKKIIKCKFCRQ

[2] = test system: C57BI/6J mice; test: DOI-elicited head-twitch response (HTR) in C57BI/6J mice; settings: for DOI-elicited HTR: C57BI/6J mice, 5-FPT up to 5.6 mg/kg, AS-19 10 mg/kg, DPAT 0.5 mg/kg
Text: The 5-HT2A receptor is a predominant 5-HT receptor in the cortex, and serves important excitation modulation functions on glutamate pyramidal and GABA neurons.

[3] = biological target: T2, human 5-HT7 receptors (5-HT7a) (Homo sapiens, UniProt P34969); test: Radioligand competition binding ([3H]5-CT), HEK293 cells stably expressing human 5-HT7 receptors; settings: for Ki: human 5-HT7a, mean (SEM), at least three independent experiments, read-out: Affinity Ki 5-HT7
T2 construct: expressed in transfected cells
T2 sequence (P34969 1-445 isoform P34969-2): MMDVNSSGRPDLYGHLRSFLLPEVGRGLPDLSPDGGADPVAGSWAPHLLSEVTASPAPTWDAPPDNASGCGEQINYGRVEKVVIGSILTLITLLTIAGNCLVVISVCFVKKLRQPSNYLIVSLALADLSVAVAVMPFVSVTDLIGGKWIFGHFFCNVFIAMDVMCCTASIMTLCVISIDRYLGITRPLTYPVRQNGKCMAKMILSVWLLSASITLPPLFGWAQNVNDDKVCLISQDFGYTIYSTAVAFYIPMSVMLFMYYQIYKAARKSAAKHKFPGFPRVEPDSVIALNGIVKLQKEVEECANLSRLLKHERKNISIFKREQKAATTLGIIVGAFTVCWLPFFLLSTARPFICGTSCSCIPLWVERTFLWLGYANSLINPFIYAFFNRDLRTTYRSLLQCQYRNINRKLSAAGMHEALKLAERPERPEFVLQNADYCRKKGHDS
Text: FIGS. 4A-4C show the effects of 5-FPT are stereospecific. […] Data are expressed as the mean±SEM.

[4] = biological target: T3, mouse 5-HT2A receptor (Mus musculus, UniProt P35363); test: Binding affinity, HEK293 cells transiently expressing mouse 5-HT2A; settings: for Ki: mouse, mean (SEM), read-out: Affinity Ki m5-HT2A
T3 construct: expressed in transfected cells; host or cells: HEK293, transient
T3 sequence (P35363 whole entry): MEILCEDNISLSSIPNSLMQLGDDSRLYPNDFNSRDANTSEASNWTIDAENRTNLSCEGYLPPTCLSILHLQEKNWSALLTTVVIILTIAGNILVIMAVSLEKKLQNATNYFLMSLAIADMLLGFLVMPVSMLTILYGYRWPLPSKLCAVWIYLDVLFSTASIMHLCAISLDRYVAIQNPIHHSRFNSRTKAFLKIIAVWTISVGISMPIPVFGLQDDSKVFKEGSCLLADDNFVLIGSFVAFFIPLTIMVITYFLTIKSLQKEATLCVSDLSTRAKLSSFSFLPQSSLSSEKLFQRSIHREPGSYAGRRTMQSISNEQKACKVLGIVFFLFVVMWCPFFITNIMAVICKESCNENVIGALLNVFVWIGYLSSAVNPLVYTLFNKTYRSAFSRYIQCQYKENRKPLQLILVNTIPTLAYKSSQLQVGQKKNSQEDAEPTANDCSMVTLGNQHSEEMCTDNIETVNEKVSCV

[5] = test system: mice; test: Test for serotonin syndrome; format: in vivo; settings: 5.6 mg/kg
Text: (§1) Of note, after behavioral testing was complete, blind scorers categorized mice into two groups based on number of rears and initiated social interactions, and the two groups differentiated vehicle from (+)-5-FPT-treated mice with 100% accuracy.

[6] = test system: C57BI/6J mice; test: Social interactions with vehicle-treated littermates and grooming; format: in vivo; settings: 5.6 mg/kg
Text: Data are from C57BI/6J mice.
as §1

[7] = test system: C58/J mice; test: Idiopathic stereotypic jumping in C58/J mice; format: in vivo; settings: 1 and 3 mg/kg
[8] = test system: C58/J and C57BI/6J mice; test: Locomotor behavior of the compound on its own (stereotypy assays); format: in vivo; settings: 1, 3 and 5.6 mg/kg
Text: Data are from stereotypy assays using C58/J (left) and C57BI/6J (right) mice. […] Bar graphs show the mean±SEM.

[9] = test system: C57BI/6J mice; test: d-amphetamine (AMP)-elicited hyperlocomotion in C57BI/6J mice; format: in vivo; settings: 5.6 mg/kg; AMP 3 mg/kg; 30 min session
Text: (§2) Regarding glutamate neurotransmission in stereotypy, the NMDA receptor antagonist, MK-801, characteristically elicits stereotypic rotations that appear to mimic monogenetic stereotypy observed in Fmr1 KO mice. Furthermore, mutations and autoantibodies of the NMDA glutamate receptor that decrease its function are causally linked to ASD, intellectual disabilities, and psychiatric symptoms in humans.

[10] = Plasma and brain concentrations after subcutaneous administration; format: in vivo, mice
[11] = test system: C57BI/6J mice; test: MK-801-elicited hyperlocomotion in C57BI/6J mice; format: in vivo; settings: 5.6 mg/kg; MK-801 0.3 mg/kg; 30 min session
Text: Bar graphs show the mean±SEM.
as §2

[12] = test system: C57BI/6J mice; test: MK-801-elicited stereotypic rotations in C57BI/6J mice; format: in vivo
Text: as §2

[13] = biological target: T1, 5-HT1A receptors; test: Functional assay at 5-HT1A, relative to 5-CT; format: cell-based
[14] = mean (SEM) sessions, score/6 possible
[15] = 30 min after 3.0 mg/kg subcutaneous, mean (SEM)
[16] = 60 min after 3.0 mg/kg subcutaneous, mean (SEM)

CN(C)C1CCc2c(cccc2-c2ccccc2F)C1 (single isomer, unassigned; (-)) [(−)-5-FPT, 5-(2′-fluorophenyl)-N,N-dimethyl-1,2,3,4-tetrahydronaphthalen-2-amine]
Affinity at 5-HT1A receptors, in words [1]: no appreciable affinity
DOI-elicited HTR ([2]; DOI 1 mg/kg): substantially less efficacious than (+)-5-FPT
Ki [3]: 460 nM
Higher affinity than (+)-5-FPT at mouse 5-HT2A receptors [4]: ~4 fold
Ki [4]: 147 nM

CN(C)C1CCc2c(cccc2-c2ccccc2F)C1 (single isomer, unassigned; (+)) [(+)-5-FPT, 5-(2′-fluorophenyl)-N,N-dimethyl-1,2,3,4-tetrahydronaphthalen-2-amine]
Flat Body ([5]; mean (SEM) number of sessions of six with the behavior (score/6 possible)): 0(0)
Forepaw Tread [5, 14]: 0(0)
Head Weave [5, 14]: 0(0)
Moon Walk [5, 14]: 0.3(0.2)
Piloerection [5, 14]: 0(0)
Straub Tail [5, 14]: 0(0)
Tremor [5, 14]: 0(0)
Symptoms of serotonin syndrome, in words ([5]; highest behaviorally-effective dose tested): did not result in symptoms of serotonin syndrome
Grooming [6]: decreasing grooming
Social interactions ([6]; six one-min observation sessions): significantly increased the number of initiated social interactions; also recorded: increases social interactions
DOI-elicited HTR, compound given 120 min (2 hrs) before testing ([2]; 5.6 mg/kg, DOI 1 mg/kg): remained significant; also recorded: retains efficacy
DOI-elicited HTR, compound given 180 min (3 hrs) before testing ([2]; 5.6 mg/kg, DOI 1 mg/kg): did not block the DOI HTR
DOI-elicited HTR ([2]; DOI 1 mg/kg): dose-dependently attenuated the DOI-elicited HTR; also recorded: significantly attenuated the DOI HTR; also recorded: dose-dependently blocks
DOI-elicited HTR after oral administration ([2]; oral gavage 3 mg/kg 10 min prior to subcutaneous 1 mg/kg DOI): significantly attenuated the DOI HTR; also recorded: attenuates the HTR
Stereotypic jumping [7]: potently eliminated stereotypic jumping; also recorded: dose-dependently eliminates
Locomotor behavior, compound on its own [8]: without altering locomotor behavior; also recorded: did not alter locomotion; also recorded: does not alter locomotor behavior
Ki [3]: 5.8 nM
5-HT7 affinity, (+)-enantiomer more potent than (−)-enantiomer ([3]; ratio of Ki values): about 80 times
Amphetamine (AMP) hyperlocomotion [9]: did not reduce hyperlocomotion; also recorded: did not significantly decrease hyperlocomotion
Blood-brain barrier crossing, in words ([10]; 30, 60 and 90 min after systemic administration): readily crosses the blood-brain barrier
Brain concentration [10, 15]: 1.78(0.24) μg/g
Plasma concentration [10, 15]: 0.114(0.03) μg/mL
Brain concentration [10, 16]: 2.16(0.17) μg/g
Plasma concentration [10, 16]: 0.118(0.01) μg/mL
Brain concentration ([10]; 90 min after 3.0 mg/kg subcutaneous, mean (SEM)): 1.46(0.09) μg/g
concentration at 90 min ([10]; mouse, plasma, 90 min after 3.0 mg/kg subcutaneous, mean (SEM)): 70 ng/mL
Clearance in the periphery, in words ([10]; plasma relative to brain tissue from 30 min post-administration): rapidly cleared in the periphery
Ki [4]: 632 nM
MK-801 hyperlocomotion [11]: significantly decreased hyperlocomotion; also recorded: blocks
Stereotypic rotational behavior, compound on its own [12]: neither (+)-5-FPT nor AMP caused stereotypic rotational behavior
MK-801-elicited stereotypic rotations ([12]; 5.6 mg/kg, MK-801 0.3 mg/kg): significantly reduced stereotypical rotations; also recorded: significantly reduces stereotypic rotations
Functional activity at 5-HT1A, in words [13]: partial agonist
Emax ([13]; read-out: EMAX 5-HT1A): 48%
